Source: patent US7495104B2, “Quinoline or quinazoline derivatives inhibiting auto-phosphorylation of fibroblast growth factor receptors” (Kirin Beer Kabushiki Kaisha, priority 2001, dated 2009)
Counter-ions that a name gives are not always drawn.

Biological target: Bek (Homo sapiens, UniProt P21802)
Experiment: Inhibitory activity against Bek-autophosphorylation using ELISA method in OCUM-2MD3 cells
Format: cell-based
Settings: 1 hr with compound, read-out: IC50 (concentration necessary for inhibiting 50% of Bek-phosphorylation)
Summary of the method: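 Sandwich ELISA (anti-phosphotyrosine capture, anti-Bek detection, peroxidase, 450 nm) measured Bek autophosphorylation in OCUM-2MD3 lysates after 1 hr compound treatment at 37° C in 0.1% serum medium. IC50 derived by scaling between no-drug (100%) and excess positive control at 1000 nM (0%).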

Sequence of Bek (P21802 431-767 limits assumed): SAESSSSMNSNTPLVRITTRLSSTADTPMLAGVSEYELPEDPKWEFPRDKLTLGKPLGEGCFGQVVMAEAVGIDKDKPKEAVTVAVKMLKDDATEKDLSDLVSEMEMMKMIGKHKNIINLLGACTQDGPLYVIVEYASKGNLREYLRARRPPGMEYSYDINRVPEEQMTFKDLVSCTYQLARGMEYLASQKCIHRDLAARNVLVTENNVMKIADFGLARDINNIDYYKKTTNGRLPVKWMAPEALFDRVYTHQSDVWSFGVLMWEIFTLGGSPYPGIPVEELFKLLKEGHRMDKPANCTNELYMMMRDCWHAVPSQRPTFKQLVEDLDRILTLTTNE

Row | IC50 | SMILES
1 | 95.9 nM | COc1cc2c(Oc3ccc(Nc4ccc(C(C)(C)C)cc4)cc3)ccnc2cc1OCCN(CCO)CCO [Compound 349, 2-[(2-{4-[4-(4-Tert-butyl-phenylamino)-phenoxy]-6-methoxy-quinolin-7-yloxy}-ethyl)-(2-hydroxy-ethyl)-amino]-ethanol hydrochloride]
2 | 334 nM | COc1cc2c(Oc3ccc(Nc4ccc(C(C)(C)C)cc4)cc3)ccnc2cc1OCCNC1(CO)CCCC1 [Compound 350, [1-(2-{4-[4-(4-Tert-butyl-phenylamino)-phenoxy]-6-methoxy-quinolin-7-yloxy}-ethylamino)-cyclopenthyl]-methanol]
3 | 232 nM | CCC(CO)(CO)NCCOc1cc2nccc(Oc3ccc(Nc4ccc(C(C)(C)C)cc4)cc3)c2cc1OC [Compound 351, 2-(2-{4-[4-(4-Tert-butyl-phenylamino)-phenoxy]-6-methoxy-quinolin-7-yloxy}-ethylamino)-2-ethyl-propan-1,3-diol]
4 | 54.7 nM | COc1cc2c(Oc3ccc(Nc4ccc(C(C)(C)C)cc4)cc3)ccnc2cc1OCCN(CC(C)O)CC(C)O (stereo not shown) [Compound 352, 1-[(2-{4-[4-(4-Tert-butyl-phenylamino)-phenoxy]-6-methoxy-quinolin-7-yloxy}-ethyl)-(2-hydroxy-propyl)-amino]-propan-2-ol]
5 | 374 nM | COc1cc2c(Oc3ccc(Nc4ccc(C(C)(C)C)cc4)cc3)ccnc2cc1OCCNC(C)CO (stereo not shown) [Compound 353, 2-(2-{4-[4-(4-Tert-butyl-phenylamino)-phenoxy]-6-methoxy-quinolin-7-yloxy}-ethylamino)-propan-1-ol]
6 | 38.4 nM | CCC(CO)(CO)NCCOc1cc2nccc(Oc3ccc(NC(=O)NCCC(C)(C)C)cc3)c2cc1OC [Compound 354, 1-(4-{7-[2-(1,1-Bis-hydroxymethyl-propylamino)-ethoxy]-6-methoxy-quinolin-4-yloxy}-phenyl)-3-(3,3-dimethyl-butyl)-urea]
7 | 403 nM | COc1cc2nccc(Oc3ccc(Nc4ccc(C(C)(C)C)cc4)cc3)c2cc1OCCN1CCC(CO)CC1 [Compound 355, [1-(2-{4-[4-(4-Tert-butyl-phenylamino)-phenoxy]-7-methoxy-quinolin-6-yloxy}-ethyl)-piperidin-4-yl]-methanol]
8 | 347 nM | COc1cc2nccc(Oc3ccc(Nc4ccc(C(C)(C)C)cc4)cc3)c2cc1OCCNCCO [Compound 356, 2-(2-{4-[4-(4-Tert-butyl-phenylamino)-phenoxy]-7-methoxy-quinolin-6-yloxy}-ethylamino)-ethanol]
9 | 213 nM | COc1cc2nccc(Oc3ccc(Nc4ccc(C(C)(C)C)cc4)cc3)c2cc1OCCN(C)CCO [Compound 357, 2-[(2-{4-[4-(4-Tert-butyl-phenylamino)-phenoxy]-7-methoxy-quinolin-6-yloxy}-ethyl)-methyl-amino]-ethanol]
10 | 51.7 nM | COc1cc2nccc(Oc3ccc(Nc4ccc(C(C)(C)C)cc4)cc3)c2cc1OCCN(CCO)CCO [Compound 358, 2-[(2-{4-[4-(4-Tert-butyl-phenylamino)-phenoxy]-7-methoxy-quinolin-6-yloxy}-ethyl)-(2-hydroxy-ethyl)-amino]-ethanol]
11 | 254 nM | COc1cc2c(Oc3ccc(NC(=O)NCCC(C)(C)C)cc3)ccnc2cc1OCCNC1(CO)CCCC1 [Compound 359, 1-(3,3-Dimethyl-butyl)-3-(4-{7-[2-(1-hydroxymethyl-cyclopenthylamino)-ethoxy]-6-methoxy-quinolin-4-yloxy}-phenyl)-urea]
12 | 19.5 nM | COc1cc2c(Oc3ccc(NC(=O)NCCC(C)(C)C)cc3)ccnc2cc1OCCN(CC(C)O)CC(C)O (stereo not shown) [Compound 360, 1-[4-(7-{2-[Bis-(2-hydroxy-propyl)-amino]-ethoxy}-6-methoxy-quinolin-4-yloxy)-phenyl]-3-(3,3-dimethyl-butyl)-urea]
13 | 29.8 nM | COc1cc2c(Oc3ccc(NC(=O)NCCC(C)(C)C)cc3)ccnc2cc1OCCNC(C)CO (stereo not shown) [Compound 361, 1-(3,3-Dimethyl-butyl)-3-(4-{7-[2-(2-hydroxy-1-methyl-ethylamino)-ethoxy]-6-methoxy-quinolin-4-yloxy}-phenyl)-urea]
